Like-named read-outs stand apart in the source and are kept apart here.
What was measured:
[1] = Chemical stability test in human plasma (enzymatic hydrolysis, HPLC-MS/MS); assay type: in vitro ADME; settings: for LEDA195–221 k ± 2SD (degradation rate): LEDA195–221 matrix (Table S4); for behaviour towards plasma enzymes (hydrolysis or stable) / half-life at 1 µM: human plasma; for behaviour towards plasma enzymes (hydrolysis or stable): all sample sets (pure isomer and mixture), up to 120 min at 37 °C; for half-life at 1 µM: human
Procedure: The present investigation was carried out to evaluate the variation of hydrolytic activity of the human plasma enzymatic system when two potential substrates were simultaneously present. […] Therefore, the human plasma sample solutions, prepared with a mixture of isomers, presented both a substrate and a potential interference, which could influence the enzyme functionality. To correctly monitor this process, it must be possible to distinguish each isomer present in the sample, quantify it with the proper calibration curve and plot its degradation profile. The LEDA algorithm was used to support this investigation and to test its quali-quantitative ability in a complex matrix of human plasma samples. The experimental plan involved the analysis of three series of human plasma samples for each couple of isomers: two series of samples were added to a pure isomer, to check the activity of the plasma enzyme system without interferences, and the last series of samples were spiked with the equimolar mixture of isomers. The series of samples were prepared, as described in Section 4.6 and analyzed with the proper HPLC-MS/MS method. The acquired data were processed with the conventional quantitative method for the series containing the single isomers, and with the LEDA approach for the samples spiked with the mixture of isomers. The samples containing a single isomer were worked out by the integration of quantitative Pi signal and the estimation of PAR value by dividing with IS abundance, and quantitative determination of the analyte in the sample was obtained by using the proper calibration curve. In contrast, in the samples spiking with the mixture of isomers, each proposed LEDA matrix recognized the relative concentration of the isomers present in the sample. Therefore, their abundance in the precursor ion signal (or Ri signal) were assigned, each PAR value calculated by dividing with the IS abundance, and quantitative determination of the analytes in the sample were performed by using the respective precursor ion calibration curve. In Figure 6, an example of the degradation plots of the mixtures of the ELF94 and ELF96 isomers is shown, while all the degradation profiles are reported in the Supplementary Material (Figures S20–S25).
Each sample was prepared by adding 10 µL of proper spiked solution to 100 µL of human plasma matrix in a 1.5 mL microcentrifuge tube. The obtained solution corresponds to 1 μM of analyte that undergo degradation study. Each set of samples was prepared in triplicate and incubated for four different times: 0, 30, 60, and 120 min at 37 °C. Therefore, each stability panel of studied analyte was represented by a batch of 12 samples (4 incubation times, 3 replicates). After the incubation, 300 µL of IS solution was added to the sample and then centrifuged (room temperature for 5 min at 800× g). Then, the supernatant was transferred to autosampler vials, dried under a gentle stream of nitrogen and dissolved in 1.0 mL of 10 mM of formic acid in mQ water:acetonitrile 80:20 solution [23, 24, 25, 27, 28, 29, 30]. Each sample batch included the blank samples of human plasma matrix, prepared as described above, with the addition only of the IS solution. Thus, the analysis of the blank samples can check any interference in the analyte MRM signals due to the matrix components. Three sets of six replicates for each analyte were prepared to evaluate the matrix effect (ME) and the analyte recovery (RE) of the proposed method. The same evaluation was extended to the IS to verify its reliability as a quantitative reference. Set A was prepared by mixing 10 µL of spiked solution with 300 µL of IS solution. Set B was obtained by mixing 100 µL of plasma with 300 µL of acetonitrile and, after centrifugation and separation of the supernatant, by adding 10 µL of spiked solution to each analyte or 300 µL of IS solution. […]

[2] = parameters: method as in PMID 27882889, PMID 29536775, PMID 35753165, PMID 30947123; settings: check of hydrolytic activity of the plasma pool; own degradation plot comparable to literature value; cited from earlier work
[3] = human plasma spiked with equimolar mixture of the isomer pair, 1 μM each, 37 °C, LEDA195–221 matrix
[4] = human plasma spiked with isomers mixture
[5] = human plasma spiked with isomers mixture, LEDAall matrix (Table S4)
[6] = human plasma spiked with the pure isomer, 1 μM, 37 °C, 0-120 min, conventional quantitative processing
[7] = human plasma spiked with equimolar mixture of the isomer pair, 1 μM each, 37 °C, LEDA195–221 matrix, read-out: Mix t1/2 ± 2SD
[8] = human plasma spiked with isomers mixture, LEDAall matrix (Table S4), read-out: LEDAall t1/2 ± 2SD
[9] = human plasma spiked with the pure isomer, 1 μM, 37 °C, 0-120 min, conventional quantitative processing, read-out: Pure Isomer t1/2 ± 2SD

Row | Structure (SMILES) | Mix k ± 2SD (degradation rate) [1, 3] | LEDA195–221 k ± 2SD (degradation rate) [1, 4] | LEDAall k ± 2SD (degradation rate) [1, 5] | Pure Isomer k ± 2SD (degradation rate) [1, 6] | behaviour towards plasma enzymes (hydrolysis or stable) [1] | half-life at 1 µM [1, 7] [min] | half-life at 1 µM [1, 8] [min] | half-life at 1 µM [1, 9] [min] | t1/2 of the reference compound in human plasma [2] [min]
1 | COc1cc(/C=C/C(=O)OCCCCCN(C)CCCOC(=O)c2cc(OC)c(OC)c(OC)c2)cc(OC)c1OC [GDE5] | <0.006 ln(μM)/min | < 0.006 ln(M)/min | < 0.006 ln(M)/min | <0.006 ln(μM)/min | remained constant | > 120 | > 120 | > 120 | –
2 | COc1cc(/C=C/C(=O)OCCCN(C)CCCCCCOC(=O)c2cc(OC)c(OC)c(OC)c2)cc(OC)c1OC [ELF94] | −0.023 ± 0.005 ln(μM)/min | −0.023 ± 0.005 ln(M)/min | −0.023 ± 0.003 ln(M)/min | −0.014 ± 0.001 ln(μM)/min | hydrolysis | 34 ± 14 | 34 ± 15 | 49 ± 18 | –
3 | CCOC(=O)C(C)c1cccc(C(=O)c2ccccc2)c1 (stereo not drawn) [KEE, Ketoprofen ethyl ester] | – | – | – | – | – | – | – | – | ≤ 120
4 | COc1cc(/C=C/C(=O)OCCCCCCN(C)CCCOC(=O)c2cc(OC)c(OC)c(OC)c2)cc(OC)c1OC [ELF96] | <0.006 ln(μM)/min | < 0.006 ln(M)/min | < 0.006 ln(M)/min | <0.006 ln(μM)/min | remained constant | > 120 | > 120 | > 120 | –
5 | COc1cc(/C=C/C(=O)OCCCN(C)CCCCCOC(=O)c2cc(OC)c(OC)c(OC)c2)cc(OC)c1OC [FRA76] | −0.019 ± 0.003 ln(μM)/min | −0.019 ± 0.003 ln(M)/min | −0.019 ± 0.005 ln(M)/min | −0.017 ± 0.001 ln(μM)/min | hydrolysis | 32 ± 18 | 32 ± 19 | 43 ± 16 | –

From paper PMC9653966, “Simultaneous Degradation Study of Isomers in Human Plasma by HPLC-MS/MS and Application of LEDA Algorithm for Their Characterization” (International Journal of Molecular Sciences, 2022)
